Data as given in article PMC4576993 (Leukemia, 2011).

Assay: Renal excretion of vosaroxin and metabolites in urine, 24 h after first dose
Assay type: in vivo, human
Conditions: 18 and 27 mg/m^2 weekly, eight patients

Average renal excretion of the total dose infused (24 h after first dose): 0.99% | Detection in urine (first dose): the only metabolite detected in urine | Ratio of N-desmethyl-vosaroxin to vosaroxin excretion in urine (first dose, coefficient of variation 40%): 0.43
Structure (SMILES): CO[C@H]1CN(c2ccc3c(=O)c(C(=O)O)cn(-c4nccs4)c3n2)C[C@@H]1N [N-desmethyl-vosaroxin]
